Test results published in the NIST ThermoML archive (doi:10.1016/j.jct.2017.11.009).
± gives the expanded uncertainty stated by the source.

Test: Boiling temperature at pressure P
Conditions: 101.3 kPa; Liquid; Ebulliometric method (Recirculating still)

Row | Structure (SMILES) | Boiling temperature at pressure P [°C]
1 | OCCO [1,2-ethanediol] | 197.17 ± 0.4
2 | C=CCO [2-propenol] | 96.80 ± 0.4
3 | CN1CCCC1=O [N-methylpyrrolidone] | 202.29 ± 0.4
4 | CNC=O [N-methylformamide] | 199.10 ± 0.4
